# pIC50, pKd, pKi: −log10 of the molar value. Activity calls are given as the source filed them. No cut-off for these calls is given here.
# Columns and labels:
# BV-2 [1] = test: Anti-neuroinflammatory activity in mouse BV-2 cells assessed as inhibition of LPS-induced NO production incubated for 24 hrs in presence of LPS by fluorescence-based analysis; type: functional, cell-based; settings: for pIC50: BV-2, 24 h
# Cannabinoid receptor 2 = Cannabinoid receptor 2 (Homo sapiens, UniProt P34972); test: Binding affinity to CB2 receptor (unknown origin)
# Cannabinoid receptor 1 = Cannabinoid receptor 1 (Homo sapiens, UniProt P21554); test: Binding affinity to CB1 receptor (unknown origin)
# Pyruvate kinase PKM [2] = target: T1, Pyruvate kinase PKM (Homo sapiens, UniProt P14618); test: Binding affinity to PKM2 (unknown origin) assessed as decrease in thermal stabilization of protein by measuring change in melting temperature at 100 uM incubated for 2 hrs at room temperature followed by heating at varying temperatures for 5 mins and later cooled at 25 degC for 3 mins by CETSA analysis; settings: filed as modulator, time 128.0 min
# Target sequence in this assay (P14618 2-531 limits assumed): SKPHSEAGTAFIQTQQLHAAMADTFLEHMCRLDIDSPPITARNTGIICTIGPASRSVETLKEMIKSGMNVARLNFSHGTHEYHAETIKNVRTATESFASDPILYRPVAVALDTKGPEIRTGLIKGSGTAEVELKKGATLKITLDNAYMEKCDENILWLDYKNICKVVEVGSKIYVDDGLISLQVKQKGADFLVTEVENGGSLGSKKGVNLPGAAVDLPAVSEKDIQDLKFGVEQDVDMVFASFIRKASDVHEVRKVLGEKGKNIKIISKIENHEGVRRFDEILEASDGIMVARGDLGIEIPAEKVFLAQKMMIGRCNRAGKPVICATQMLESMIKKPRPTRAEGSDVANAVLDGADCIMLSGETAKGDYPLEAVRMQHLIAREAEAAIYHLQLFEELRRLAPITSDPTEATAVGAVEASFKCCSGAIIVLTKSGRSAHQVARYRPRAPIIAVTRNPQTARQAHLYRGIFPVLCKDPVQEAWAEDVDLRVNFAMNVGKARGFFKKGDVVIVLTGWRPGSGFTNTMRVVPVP
# BV-2 [3] = test: Anti-neuroinflammatory activity in mouse BV-2 cells assessed as inhibition of LPS-induced IL-1 beta mRNA expression at 1 uM by qRT-PCR analysis; type: functional, cell-based
# [4] = AUC in BALB/c mouse plasma at 10 mg/kg, po measured for 4 hrs by MS-HPLC analysis; type: ADME, organism-based; settings: in vivo
# BV-2 [5] = test: Inhibition of LPS-inuced nuclear translocation of PKM2 in mouse BV-2 cells assessed as decrease in PKM2 content in nucleus at 5 uM incubated for 6 hrs in presence of LPS by western blot analysis; type: subcellular; settings: filed as modulator
# Pyruvate kinase PKM [6] = target: T1, Pyruvate kinase PKM; test: Binding affinity to PKM2 (unknown origin) assessed as dissociation constant by fluorescence titration based spectrophotometric analysis
# Target sequence in this assay (P14618 whole entry): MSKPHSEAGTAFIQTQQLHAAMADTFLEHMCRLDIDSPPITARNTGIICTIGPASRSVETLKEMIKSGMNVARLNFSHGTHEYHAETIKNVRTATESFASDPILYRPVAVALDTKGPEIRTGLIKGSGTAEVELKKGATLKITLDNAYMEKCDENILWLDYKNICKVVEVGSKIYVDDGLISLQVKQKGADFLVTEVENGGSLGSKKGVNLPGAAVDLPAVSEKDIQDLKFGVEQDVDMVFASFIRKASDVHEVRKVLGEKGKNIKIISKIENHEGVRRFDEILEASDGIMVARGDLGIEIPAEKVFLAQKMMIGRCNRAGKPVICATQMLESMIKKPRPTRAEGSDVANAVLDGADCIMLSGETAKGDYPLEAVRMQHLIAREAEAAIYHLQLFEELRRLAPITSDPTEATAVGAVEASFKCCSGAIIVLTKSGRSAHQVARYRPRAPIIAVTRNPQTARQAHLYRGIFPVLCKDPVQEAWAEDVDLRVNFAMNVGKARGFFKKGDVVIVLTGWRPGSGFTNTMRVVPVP
# Homo sapiens = species on record: Homo sapiens; test: Binding affinity to PKM2 F26A mutant (unknown origin) at 10 to 50 uM by fluorescence titration based spectrophotometric analysis; settings: dose 10-50 µM
# [7] = Tmax in BALB/c mouse plasma at 10 mg/kg, po measured for 4 hrs by MS-HPLC analysis; type: ADME, organism-based
# BV-2 [8] = test: Anti-neuroinflammatory activity in mouse BV-2 cells assessed as inhibition of LPS-induced IL-1 beta mRNA expression at 10 uM by qRT-PCR analysis; type: functional, cell-based
# [9] = Acute toxicity against BALB/c mouse assessed as changes in body weight at 20 mg/kg, ip measured for 14 days; type: organism-based; settings: in vivo, 336 h, time 14 day
# [10] = Half life in BALB/c mouse plasma at 10 mg/kg, po measured for 4 hrs by MS-HPLC analysis; type: ADME, organism-based
# Mus musculus [11] = test: Anti-morphine addiction activity against BALB/c mouse assessed as decrease in preference for morphine-paired chamber at 0.2 mg/kg administration started on day 3 after 2 days of chamber habituation followed by treatment with morphine on days 4,6 and 8 and with vehicle on days 5,7 and 9 and measured on day 10 by conditional place preference test; type: functional, organism-based; settings: time 8.0 day
# [12] = Half life in BALB/c mouse brain at 10 mg/kg, po measured for 4 hrs by MS-HPLC analysis; type: ADME, organism-based
# [13] = Cmax in BALB/c mouse brain at 10 mg/kg, po measured for 4 hrs by MS-HPLC analysis; type: ADME, organism-based; settings: in vivo
# [14] = Acute toxicity against BALB/c mouse assessed as mortality at 20 mg/kg, ip measured after 2 hrs; type: organism-based; settings: in vivo
# [15] = Mean residence time in BALB/c mouse plasma at 10 mg/kg, po measured for 4 hrs by MS-HPLC analysis; type: ADME, organism-based
# [16] = Cmax in BALB/c mouse plasma at 10 mg/kg, po measured for 4 hrs by MS-HPLC analysis; type: ADME, organism-based; settings: in vivo
# [17] = Tmax in BALB/c mouse brain at 10 mg/kg, po measured for 4 hrs by MS-HPLC analysis; type: ADME, organism-based
# [18] = Mean residence time in BALB/c mouse brain at 10 mg/kg, po measured for 4 hrs by MS-HPLC analysis; type: ADME, organism-based
# BV-2 [19] = test: Anti-neuroinflammatory activity in mouse BV-2 cells assessed as inhibition of LPS-induced microglial activation by measuring inhibition of morphological changes at 5 uM incubated for 24 hrs in presence of LPS by inverted microscopic analysis; type: functional, cell-based
# [20] = Ratio of Cmax in brain to plasma in BALB/c mouse at 10 mg/kg, po measured for 4 hrs by MS-HPLC analysis; type: ADME, organism-based; settings: brain and plasma
# [21] = AUC in BALB/c mouse brain at 10 mg/kg, po measured for 4 hrs by MS-HPLC analysis; type: ADME, organism-based; settings: in vivo
# Mus musculus [22] = test: Anti-neuroinflammatory activity in BALB/c mouse assessed as decrease in morphine-induced IL-1 beta mRNA expression in medial prefrontal cortex at 0.2 mg/kg administration started on day 3 after 2 days of chamber habituation followed by treatment with morphine on days 4,6 and 8 and with vehicle on days 5,7 and 9 and measured on day 10 by qRT-PCR analysis; type: functional, organism-based; settings: time 8.0 day
# [23] = Ratio of AUC in brain to plasma in BALB/c mouse at 10 mg/kg, po measured for 4 hrs by MS-HPLC analysis; type: ADME, organism-based; settings: brain and plasma
# Cannabinoid receptor 1, sequence (P21554 whole entry): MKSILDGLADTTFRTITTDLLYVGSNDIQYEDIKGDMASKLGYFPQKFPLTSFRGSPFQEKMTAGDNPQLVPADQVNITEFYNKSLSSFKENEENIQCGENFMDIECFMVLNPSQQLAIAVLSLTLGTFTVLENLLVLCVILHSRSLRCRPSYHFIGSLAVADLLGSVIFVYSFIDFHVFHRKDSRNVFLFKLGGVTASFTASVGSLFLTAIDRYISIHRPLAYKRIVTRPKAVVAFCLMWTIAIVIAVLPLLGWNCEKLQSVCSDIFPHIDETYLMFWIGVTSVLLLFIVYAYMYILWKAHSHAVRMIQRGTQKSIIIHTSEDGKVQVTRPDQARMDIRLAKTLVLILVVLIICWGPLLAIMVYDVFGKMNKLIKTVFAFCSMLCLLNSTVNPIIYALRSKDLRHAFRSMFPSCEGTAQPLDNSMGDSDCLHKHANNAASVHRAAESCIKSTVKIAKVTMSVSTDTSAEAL
# Cannabinoid receptor 2, sequence (P34972 whole entry): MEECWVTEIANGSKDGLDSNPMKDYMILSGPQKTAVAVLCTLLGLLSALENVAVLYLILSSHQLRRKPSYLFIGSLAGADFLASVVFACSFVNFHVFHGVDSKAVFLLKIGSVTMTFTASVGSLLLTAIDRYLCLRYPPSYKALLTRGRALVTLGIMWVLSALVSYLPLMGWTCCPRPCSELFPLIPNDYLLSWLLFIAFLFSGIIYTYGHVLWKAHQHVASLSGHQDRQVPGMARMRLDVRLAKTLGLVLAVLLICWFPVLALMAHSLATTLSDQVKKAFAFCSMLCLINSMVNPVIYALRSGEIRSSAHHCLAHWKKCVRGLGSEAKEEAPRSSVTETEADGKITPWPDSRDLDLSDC
structure (smiles),measurement,setting,value
C=C(C)[C@H]1CCC(C)=C[C@@H]1c1c(O)cc([C@H](C)n2nccn2)cc1O,pIC50,BV-2 [1],< 4.52
CCCCCCC(C)(C)c1cc(O)c2c(c1)OC(C)(C)c1ccc(C)c(CO)c1-2,pKi,Cannabinoid receptor 2,7.02
same,pKi,Cannabinoid receptor 1,10.18
C=C(C)[C@H]1CCC(C)=C[C@@H]1c1c(O)cc([C@@H](C)n2nccn2)cc1O,pIC50,BV-2 [1],< 4.52
C=C(C)[C@@H]1CCC(C)=C[C@H]1c1c(O)cc([C@H](C)n2nccn2)cc1O,ΔTm,Pyruvate kinase PKM [2],4.1 °C
same,Activity,BV-2 [3],Active
same,AUC,[4],75.5 ng·h/g
same,Activity,BV-2 [1],Dose-dependent-effect
same,pIC50,BV-2 [1],5.48
same,inhibition,BV-2 [5],Active
same,pKd,Pyruvate kinase PKM [6],5.66
same,Activity,Homo sapiens,inactive
same,Tmax,[7],30 min
same,Activity,BV-2 [8],Active
same,Activity,[9],Non-toxic
same,half-life,[10],42 min
same,Activity,Mus musculus [11],Active
same,half-life,[12],48 min
same,Cmax,[13],130 ng/mg
same,Activity,[14],Non-toxic
same,MRT,[15],72 min
same,Cmax,[16],46.6 ng/mg
same,Tmax,[17],18 min
same,MRT,[18],102 min
same,Activity,BV-2 [19],Active
same,Kp at 4 h,[20],3
same,AUC,[21],137.7 ng·h/g
same,Activity,Mus musculus [22],Active
same,Kp at 4 h,[23],> 2
C=C(C)[C@@H]1CCC(C)=C[C@H]1c1c(O)cc([C@@H](C)n2nccn2)cc1O,ΔTm,Pyruvate kinase PKM [2],1.6 °C
same,pIC50,BV-2 [1],4.88
same,inhibition,BV-2 [5],Active; Weak Inhibitory Effect Observed
same,Activity,BV-2 [8],Active
same,Activity,Mus musculus [11],inactive
same,Activity,BV-2 [19],Active; Lessened Effect Observed
same,Activity,Mus musculus [22],Active; Minimal Effect Observed

# Source: ChEMBL document CHEMBL6103563, “Chiral recognition of CIAC001 isomers in regulating pyruvate kinase M2 and mitigating neuroinflammation” (Eur J Med Chem, 2025)
